Assay results reported in patent US12178846B2, “Methods of using gap junctions as therapeutic targets for the treatment of degenerative disorders of the retina” (The Research Foundation for The State University of New York, priority 2014, dated 2024).
Entries after “also recorded” stand apart in the source; their conditions may differ.

Tests used:
GJs = test: Retrograde Neurobiotin labeling of amacrine cells coupled to RGCs; type: cell-based, mouse
Procedure: After experimental treatment, retinas were fixed with 4% paraformaldehyde in a 0.1 M phosphate buffer solution (PBS; pH 7.4) for 30 minutes at room temperature, cryoprotected in 30% sucrose, embedded in Tissue-Tek OCT Compound (Andwin Scientific) and frozen. Cryosections (18-20 μm thick) were cut and mounted on microscope slides. For immunostaining, sections were blocked in 3% donkey serum in 0.1M PBS supplemented with 0.5% Triton X-100, and 0.1% NaN3 for 1 h at room temperature. Primary antibodies were diluted in 0.1M PBS with 0.5% Triton X-100, 0.1% NaN3 and 1% donkey or goat serum. Tissues were then incubated with primary antibodies for 3 hours at room temperature or overnight at 4° C. The following primary antibodies were used: rabbit anti-calretinin 1:2000, rabbit anti-calbindin 1:1000, goat ant-ChAT 1:100 (all from Millipore), rabbit anti-GFAP 1:1000 (Invitrogen), rabbit anti-active caspase 3 1:200 (Abcam); mouse anti-Cx35/36 1:300, mouse anti-Cx45 1:300 (both from Millipore). After extensive washing with 0.1M PBS, tissues were incubated for 1 hour in secondary anti-goat/rabbit/mouse antibodies conjugated to Alexa-488 or Alexa-594 (1:200, Molecular Probes). Retinal sections were counterstained with the nuclear dye propidium iodide (PI, Molecular Probes). Neurobiotin was visualized with Alexa-488/594 conjugated streptavidin (Molecular Probes, 1:200). Tissues were then flat-mounted in Vectashield media (Vector Labs) and fluorescent images were taken using a fluorescent microscope or an Olympus FV1200 MPE confocal microscope.
We used retrograde labeling of RGCs with Neurobiotin to visualize populations of amacrine cells in the inner nuclear layer (INL) to which they were coupled. Globes with attached optic nerves were submersed in oxygenated Ames medium and a drop of Neurobiotin (4% in 0.1 M Tris buffer) was applied to the cut optic nerve for 40 minutes. For retrograde labeling limited to RGCs, Neurobiotin was replaced with Lucifer yellow (LY, 3%). […]

ischemic retina = test: Transient in vivo retinal ischemia-reperfusion (raised IOP), 7 days reperfusion; design: species or system mouse
Procedure: Various methods were employed to produce cell death. (1) Single cell apoptosis: CytC was injected into individual RGCs or Müller cells for 15 minutes after which retinas were incubated for 4 hours in oxygenated Ames medium before fixation. After streptavidin histology, apoptotic cells were detected with an anti-active caspase 3 antibody or with Terminal deoxynucleotidyl transferase dUTP nick end labeling (TUNEL) staining. (2) Excitotoxicity: To assess the contribution of GJs to cell death within populations of RGCs and amacrine cells we conducted parallel experiments in which retinas were preincubated for 20 minutes in normal Ames medium or in one containing the GJ blockers meclofenamic acid (MFA; 50 μM) or 18-beta-glycyrrhetinic acid (18Beta-GA; 25 μM). Both control and drug-treated retinas were then exposed for 1 hour to NMDA (100-300 μM) to induce excitotoxicity followed by 4 hours in the control Ames solution. (3) Retinal ischemia: Transient in vivo retinal ischemia was induced by introducing into the anterior chamber a 33-gauge needle attached to a saline-filled reservoir (0.9% sodium chloride) that was raised above the animal so as to increase intraocular pressure (IOP) to a level […]. MFA (2 μl, 500 μM) was administered intravitreally either 30 minutes before or 3 and 24 hours following the ischemic insult. The opposite eye was cannulated, but maintained at normal IOP to serve as a normotensive control. After 40-50 minutes, the needle was withdrawn and ischemia was evidenced by corneal whitening. After 7 days of reperfusion, mice were sacrificed and eyes were processed to assess retinal damage and neuronal death. We also employed oxygen-glucose deprivation (OGD) to induce in vitro ischemia, in which retina-eyecups or isolated retinal whole-mounts were exposed continuously to either a control, oxygenated Ringer solution, or one that was glucose-free and deoxygenated by bubbling extensively with 95% N2/5% CO2 at 34° C. Following 60 minutes in the OGD environment, retinas were transferred to a control, oxygenated Ames medium for 4 hours before processing to evaluate cell death. Apoptotic and necrotic cell death were assessed by cell counts following: (1) staining with Live/Death Viability Assay (calcein AM/ethidium homodimer (EthD) (Invitrogen); (2) TUNEL, or, (3) labeling for activated caspase 3. For population studies, dead cells were counted manually within 500×500 μm areas (5 areas per retina) from micrographs of whole-mounts using images acquired by confocal microscope. Nuclear cell counts were made per unit length (500 μm) of frozen retinal cross-sections labeled with propidium iodide (2 μg/ml). In some experiments, cells counts were limited to retrograde labeled RGCs in the GCL or certain subpopulation of amacrine cells, identified by specific markers, such as calretinin (CR), calbindin (CB) and choline acetyltransferase (ChAT) in the INL. Fluorescence intensity measures were made of glial fibrillary acidic protein (GFAP), which is overexpressed in Müller glial cells following retinal injury. Expression of GFAP and connexins were quantified by analysis of confocal images with Metavue software (Molecular Devices). Average pixel fluorescence intensities were measured by using uniform rectangular areas (3-5 per image) extending either from the GCL to the outer limiting membrane for GFAP or through the IPL for connexins. The intensity values were then averaged for at least 5 images from 3-5 independent experiments and data were normalized to controls.

[1] = MFA 500 μM, 2 μl intravitreal 30 min before ischemic insult
[2] = MFA intravitreal 3 and 24 hours after transient ischemia, measured one week after insult, p<0.01
[3] = MFA, transient ischemia, p<0.001

Compound: Cc1ccc(Cl)c(Nc2ccccc2C(=O)O)c1Cl [MFA, meclofenamic acid]
- number of ChAT-positive ACs labeled with Neurobiotin (GJs; MFA application, p>0.1): did not produce a significant reduction; also recorded: little effect
- Neurobiotin labeling of CR-positive ACs in the INL (coupling to RGCs) (GJs; MFA prior to retrograde labeling, p<0.01): effectively eliminated all colocalized labeling; also recorded: significantly reduced
- total number of CR-IR cells in the INL (per 500 μm section) (GJs; MFA-treated retinas vs control, p>0.1): comparable to that in control
- cell counts in the GCL (ischemic retina; [1]): preserved
- retinal thickness / retinal morphology (ischemic retina; [1]): preserved; also recorded: prevented changes
- GFAP expression (ischemic retina; [2]): maintenance of normal levels
- cell counts in the GCL (ischemic retina; [2]): maintenance of normal levels; also recorded: significantly limit
- retinal thickness (ischemic retina; [2]): maintenance of normal levels
- number of ChAT-positive ACs in the INL (ischemic retina; MFA, ischemic retinas, p>0.1): no effect
- number of CB-immunoreactive ACs in the INL (ischemic retina; [3]): prevented the loss; also recorded: largely prevented a reduction
- number of CR-immunoreactive ACs in the INL (ischemic retina; [3]): prevented the loss
